Patent US9012678B2, “Processes for the preparation of fesoterodine” (Cadila Healthcare Limited, priority 2010, dated 2015)

Assays:
[1] = Particle Size Distribution (PSD) by laser diffraction in a Malvern Master Sizer; type: physicochemical
Experimental: Particle Size Distribution (PSD)” is determined by laser diffraction in a Malvern Master Sizer by using known method.

[2] = Stability study for Fesoterodine Fumarate (description, water by KF, related substances by HPLC on storage); type: physicochemical
Experimental: As used herein, the term “stable fesoterodine fumarate” fesoterodine fumarate containing any individual impurities less than 0.15% after exposure to a relative humidity of 60% at 25° for a period of at least three months or after exposure to a relative humidity of 75% at 40° for a period of at least three months
2) High Performance Liquid Chromatography (HPLC) Method for Determination of Impurity X in Fesoterodine Fumarate of formula (1)
• Equipment: Shimadzu LC2010C HPLC system equipped with a wavelength UV-VIS detector or equivalent. • Column: Inertsil ODS-3 (250 mm×4.6 mm, 5 μm), Make: GL Sciences Part No: 5020-01732 • Flow rate: 1.2 mL/minute • Column oven temp: 30° C. • Wavelength: 220 nm • Injection volume: 10 μL • Run time: 60 minutes • Diluent: Premixed buffer and acetonitrile in the volume ratio of 75:25. Preparation of Buffer:
Transfer 1 mL orthophosphoric acid in 1000 mL volumetric flask containing about 500 mL of water and make up the volume with water. Filter through 0.2 μm membrane filter paper.
Weigh accurately and transfer about 25 mg of sample of Fesoterodine Fumarate or Fesoterodine Fumarate (technical) into a 50 mL volumetric flask. Add 5 mL tetrahydrofuran, sonicate to dissolve and make up the volume with diluent. Make fresh two preparations at the time of injection.
Inject sample solutions containing the chromatogram upto the end of gradient. Determine the area of each impurity using suitable integrator.

[3] = 1 Month 2 to 8° C., PSD: D(90) = 10 microns
[4] = 1 Month 2 to 8° C., PSD: D(90) = 270 microns
[5] = 1 Month 25° C. ± 2° C./RH 60% ± 5%, PSD: D(90) = 10 microns
[6] = 1 Month 25° C. ± 2° C./RH 60% ± 5%, PSD: D(90) = 270 microns
[7] = 1 Month 40° C. ± 2° C./RH 75% ± 5%, PSD: D(90) = 10 microns
[8] = 1 Month 40° C. ± 2° C./RH 75% ± 5%, PSD: D(90) = 270 microns
[9] = 2 Months 2 to 8° C., PSD: D(90) = 10 microns
[10] = 2 Months 2 to 8° C., PSD: D(90) = 270 microns
[11] = 2 Months 25° C. ± 2° C./RH 60% ± 5%, PSD: D(90) = 270 microns
[12] = 2 Months 25° C. ± 2° C./RH, PSD: D(90) = 10 microns
[13] = 2 Months 40° C. ± 2° C./RH 75% ± 5%, PSD: D(90) = 10 microns
[14] = 2 Months 40° C. ± 2° C./RH 75% ± 5%, PSD: D(90) = 270 microns
[15] = 3 Months 2 to 8° C., PSD: D(90) = 10 microns
[16] = 3 Months 2 to 8° C., PSD: D(90) = 270 microns
[17] = 3 Months 25° C. ± 2° C./RH 60% ± 5%, PSD: D(90) = 10 microns
[18] = 3 Months 25° C. ± 2° C./RH 60% ± 5%, PSD: D(90) = 270 microns
[19] = 3 Months 40° C. ± 2° C./RH 75% ± 5%, PSD: D(90) = 10 microns
[20] = 3 Months 40° C. ± 2° C./RH 75% ± 5%, PSD: D(90) = 270 microns
[21] = Initial, PSD: D(90) = 10 microns
[22] = Initial, PSD: D(90) = 270 microns

Structure (SMILES): CC(C)C(=O)Oc1ccc(CO)cc1[C@H](CCN(C(C)C)C(C)C)c1ccccc1.O=C(O)/C=C/C(=O)O [Fesoterodine Fumarate, isobutyric acid 2-[(R)-3-diisopropylammonium-1-phenylpropyl)-4-(hydroxy-methyl)phenyl ester hydrogen fumarate]
- PSD: D(90) ([1]; batch from IPA/diisopropyl ether, D(90) less than 200 microns): PSD: D(90) = 10 microns
- PSD: D(90) ([1]; batch of Example 16 (methyl ethyl ketone/cyclohexane, seeded), D(90) higher than 200 microns): PSD: D(90) = 270 microns
- Description [2, 3]: White
- Related substance (by HPLC) i) Diol [2, 3]: 0.06 % w/w
- Related substance (by HPLC) ii) Diester [2, 3]: 0.03 % w/w
- Related substance (by HPLC) iii) Oxidized (RRT 1.37) [2, 3]: 0.09 % w/w
- Related substance (by HPLC) iv) Any individual impurities [2, 3]: 0.03 % w/w
- Related substance (by HPLC) v) Total impurities [2, 3]: 0.21 % w/w
- Water by KF [2, 3]: 0.16 % w/w
- Description [2, 4]: White
- Related substance i) Diol [2, 4]: 0.05%
- Related substance ii) Diester [2, 4]: BQL
- Related substance iii) Oxidized (RRT 1.37) [2, 4]: BQL
- Related substance iv) Any individual impurities [2, 4]: BQL
- Related substance v) Total impurities [2, 4]: 0.05%
- Water by KF [2, 4]: 0.16 % w/w
- Description [2, 5]: White
- Related substance (by HPLC) i) Diol [2, 5]: 0.09 % w/w
- Related substance (by HPLC) ii) Diester [2, 5]: BQL
- Related substance (by HPLC) iii) Oxidized (RRT 1.37) [2, 5]: 0.15 % w/w
- Related substance (by HPLC) iv) Any individual impurities [2, 5]: 0.02 % w/w
- Related substance (by HPLC) v) Total impurities [2, 5]: 0.26 % w/w
- Water by KF [2, 5]: 0.15 % w/w
- Description [2, 6]: White
- Related substance i) Diol [2, 6]: 0.05%
- Related substance ii) Diester [2, 6]: BQL
- Related substance iii) Oxidized (RRT 1.37) [2, 6]: BQL
- Related substance iv) Any individual impurities [2, 6]: BQL
- Related substance v) Total impurities [2, 6]: 0.05%
- Water by KF [2, 6]: 0.15 % w/w
- Description [2, 7]: White
- Related substance (by HPLC) i) Diol [2, 7]: 0.07 % w/w
- Related substance (by HPLC) ii) Diester [2, 7]: BQL
- Related substance (by HPLC) iii) Oxidized (RRT 1.37) [2, 7]: 0.17 % w/w
- Related substance (by HPLC) iv) Any individual impurities [2, 7]: 0.02 % w/w
- Related substance (by HPLC) v) Total impurities [2, 7]: 0.28 % w/w
- Water by KF [2, 7]: 0.12 % w/w
- Description [2, 8]: White
- Related substance i) Diol [2, 8]: 0.33%
- Related substance ii) Diester [2, 8]: 0.04%
- Related substance iii) Oxidized (RRT 1.37) [2, 8]: 0.06%
- Related substance iv) Any individual impurities [2, 8]: 0.06%
- Related substance v) Total impurities [2, 8]: 0.59%
- Water by KF [2, 8]: 0.56 % w/w
- Description [2, 9]: White
- Related substance (by HPLC) i) Diol [2, 9]: 0.06 % w/w
- Related substance (by HPLC) ii) Diester [2, 9]: BQL
- Related substance (by HPLC) iii) Oxidized (RRT 1.37) [2, 9]: 0.09 % w/w
- Related substance (by HPLC) iv) Any individual impurities [2, 9]: 0.03 % w/w
- Related substance (by HPLC) v) Total impurities [2, 9]: 0.21 % w/w
- Water by KF [2, 9]: 0.16 % w/w
- Description [2, 10]: White
- Related substance i) Diol [2, 10]: 0.06%
- Related substance ii) Diester [2, 10]: BQL
- Related substance iii) Oxidized (RRT 1.37) [2, 10]: BQL
- Related substance iv) Any individual impurities [2, 10]: BQL
- Related substance v) Total impurities [2, 10]: 0.06%
- Water by KF [2, 10]: 0.16 % w/w
- Description [2, 11]: White
- Related substance i) Diol [2, 11]: 0.04%
- Related substance ii) Diester [2, 11]: BQL
- Related substance iii) Oxidized (RRT 1.37) [2, 11]: BQL
- Related substance iv) Any individual impurities [2, 11]: BQL
- Related substance v) Total impurities [2, 11]: 0.04%
- Water by KF [2, 11]: 0.15 % w/w
- Description [2, 12]: White
- Related substance (by HPLC) i) Diol [2, 12]: 0.09 % w/w
- Related substance (by HPLC) ii) Diester [2, 12]: BQL
- Related substance (by HPLC) iii) Oxidized (RRT 1.37) [2, 12]: 0.17 % w/w
- Related substance (by HPLC) iv) Any individual impurities [2, 12]: 0.02 % w/w
- Related substance (by HPLC) v) Total impurities [2, 12]: 0.26 % w/w
- Water by KF [2, 12]: 0.15 % w/w
- Description [2, 13]: White
- Related substance (by HPLC) i) Diol [2, 13]: 0.07 % w/w
- Related substance (by HPLC) ii) Diester [2, 13]: BQL
- Related substance (by HPLC) iii) Oxidized (RRT 1.37) [2, 13]: 0.27 % w/w
- Related substance (by HPLC) iv) Any individual impurities [2, 13]: 0.04 % w/w
- Related substance (by HPLC) v) Total impurities [2, 13]: 0.49 % w/w
- Water by KF [2, 13]: 0.12 % w/w
- Description [2, 14]: White
- Related substance i) Diol [2, 14]: 0.5%
- Related substance ii) Diester [2, 14]: 0.05%
- Related substance iii) Oxidized (RRT 1.37) [2, 14]: 0.05%
- Related substance iv) Any individual impurities [2, 14]: 0.07%
- Related substance v) Total impurities [2, 14]: 0.22%
- Water by KF [2, 14]: 0.2 % w/w
- Description [2, 15]: White
- Related substance (by HPLC) i) Diol [2, 15]: 0.06 % w/w
- Related substance (by HPLC) ii) Diester [2, 15]: 0.03 % w/w
- Related substance (by HPLC) iii) Oxidized (RRT 1.37) [2, 15]: 0.08 % w/w
- Related substance (by HPLC) iv) Any individual impurities [2, 15]: 0.03 % w/w
- Related substance (by HPLC) v) Total impurities [2, 15]: 0.21 % w/w
- Water by KF [2, 15]: 0.16 % w/w
- Description [2, 16]: White
- Related substance i) Diol [2, 16]: 0.06%
- Related substance ii) Diester [2, 16]: BQL
- Related substance iii) Oxidized (RRT 1.37) [2, 16]: BQL
- Related substance iv) Any individual impurities [2, 16]: BQL
- Related substance v) Total impurities [2, 16]: 0.06%
- Water by KF [2, 16]: 0.16 % w/w
- Description [2, 17]: White
- Related substance (by HPLC) i) Diol [2, 17]: 0.09 % w/w
- Related substance (by HPLC) ii) Diester [2, 17]: BQL
- Related substance (by HPLC) iii) Oxidized (RRT 1.37) [2, 17]: 0.19 % w/w
- Related substance (by HPLC) iv) Any individual impurities [2, 17]: 0.02 % w/w
- Related substance (by HPLC) v) Total impurities [2, 17]: 0.26 % w/w
- Water by KF [2, 17]: 0.16 % w/w
- Description [2, 18]: White
- Related substance i) Diol [2, 18]: 0.06%
- Related substance ii) Diester [2, 18]: BQL
- Related substance iii) Oxidized (RRT 1.37) [2, 18]: BQL
- Related substance iv) Any individual impurities [2, 18]: BQL
- Related substance v) Total impurities [2, 18]: 0.06%
- Water by KF [2, 18]: 0.16 % w/w
- Description [2, 19]: White
- Related substance (by HPLC) i) Diol [2, 19]: 0.07 % w/w
- Related substance (by HPLC) ii) Diester [2, 19]: BQL
- Related substance (by HPLC) iii) Oxidized (RRT 1.37) [2, 19]: 0.29 % w/w
- Related substance (by HPLC) iv) Any individual impurities [2, 19]: 0.04 % w/w
- Related substance (by HPLC) v) Total impurities [2, 19]: 0.49 % w/w
- Water by KF [2, 19]: 0.12 % w/w
- Description [2, 20]: White
- Related substance i) Diol [2, 20]: 0.6%
- Related substance ii) Diester [2, 20]: 0.06%
- Related substance iii) Oxidized (RRT 1.37) [2, 20]: 0.06%
- Related substance iv) Any individual impurities [2, 20]: 0.04%
- Related substance v) Total impurities [2, 20]: 0.22%
- Water by KF [2, 20]: 0.12 % w/w
- Description [2, 21]: White
- Related substance (by HPLC) i) Diol [2, 21]: 0.06 % w/w
- Related substance (by HPLC) ii) Diester [2, 21]: 0.02 % w/w
- Related substance (by HPLC) iii) Oxidized (RRT 1.37) [2, 21]: 0.05 % w/w
- Related substance (by HPLC) iv) Any individual impurities [2, 21]: 0.02 % w/w
- Related substance (by HPLC) v) Total impurities [2, 21]: 0.15 % w/w
- Water by KF [2, 21]: 0.2 % w/w
- Description [2, 22]: White
- Related substance i) Diol [2, 22]: 0.1%
- Related substance ii) Diester [2, 22]: 0.05%
- Related substance iii) Oxidized (RRT 1.37) [2, 22]: 0.06%
- Related substance iv) Any individual impurities [2, 22]: 0.02%
- Related substance v) Total impurities [2, 22]: 0.21%
- Water by KF [2, 22]: 0.33 % w/w
- degradation of fesoterodine under stress conditions ([2]; fesoterodine fumarate with higher particle size): significantly slow down the degradation
